{"source": "paper PMC10959927", "about": "“Platinum iodido drugs show potential anti-tumor activity, affecting cancer cell metabolism and inducing ROS and senescence in gastrointestinal cancer cells” (Communications Biology, 2024)", "type_in_all_cases": "cell-based, human", "key": {"PANC1 cells [1]": {"system": "PANC1 cells", "experiment": "Western blotting (p-p53, p-JNK, p-p38, p-ERK, p-CHK1/2, Mcl1, BID, BAX)", "conditions": "for fold change p-ERK vs Tubulin / fold change p-JNK vs Tubulin / fold change p-p38 vs Tubulin / fold change p-p53 vs Tubulin: PANC1, Fig. 4A, replicate values", "procedure": "(§1) Total protein extracts were obtained by adding the lysis buffer: 25 mM HEPES pH 7.5, 0.3 M NaCl, 1.5 mM MgCl2, 0.2 mM EDTA, 0.5 mM DTT, 20 mM β-glicerophosphate, 0.1 mM Na3VO4, 0.1% triton X-100; in the presence of protease inhibitors. Twenty μg of protein per sample were loaded and resolved using 8%, 10% or 15% SDS-PAGE polyacrylamide gels, and then transferred onto PVDF membranes, followed by immunodetection using appropriate antibodies, purchased from Santa Cruz Technology: Mcl-1 (sc-819), Cell Signaling Technology: BIM, BID, BAX (#9942), p-p38 (1:2000, #4631), p-p53^ser15 (#9284), p-ERK1/2 (1:2000, #9106), p-CHK1^ser345 and p-CHK2^ser19 (#9931), Promega Corporation-Spain: p-JNK (#V7932), or Sigma-Aldrich: α-tubulin (1:10000, #TP026). Unless indicated, all antibodies were diluted 1:1000. Secondary antibodies conjugated with horseradish peroxidase were purchased from BioRad, and chemiluminescence detection was performed using ECL (Santa Cruz Biotechnology)."}, "AGS cells": {"system": "AGS cells", "experiment": "Western blotting (p-p53, p-JNK, p-p38, p-ERK, p-CHK1/2, Mcl1, BID, BAX)", "conditions": "for fold change p-ERK vs Tubulin / fold change p-JNK vs Tubulin / fold change p-p38 vs Tubulin / fold change p-p53 vs Tubulin: Fig. 4A, replicate values; for fold change BAX vs Tubulin / fold change MCL1 vs Tubulin / fold change BID full length vs Tubulin: Fig. S3B", "procedure": "as §1"}, "PANC1 cells [2]": {"system": "PANC1 cells", "experiment": "Ratio GSH/GSSG, colorimetric kit", "conditions": "PANC1, 3, relative to Control = 1", "procedure": "GSH and GSSG levels were determined in AGS and PANC1 cells after 3 and 24 h of treatment with the compounds (using H2O2 as a positive control) with the Glutathione Colorimetric Detection Kit (ThermoFisher) following the manufacturer’s instructions. Thirty minutes after adding the Colorimetric Detection Reagent and the Reaction Mixture, the absorbance was read at 405 nm. A standard curve was generated with each assay to interpolate the sample results. To measure GSSG, standards and samples must be diluted with the Sample Diluent containing 2-vinylpyridine."}}, "note": "“And” between values parts separate entries of the source, which are not always exact repeats. Equal values may be shown once."}
{"molecule": "[NH2][Pt]([NH2])([Cl])[Cl]", "note": "[CDDP, cisplatin, reference compound]", "values": [{"measurement": "phosphorylation of CHK1/2 (DDR pathway, western blot)", "setting": "PANC1 cells [1]; PANC1, IC50, 1, 3, 6 or 24 h", "value": "induced the phosphorylation"}, {"measurement": "fold change BAX vs Tubulin", "setting": "PANC1 cells [1]; PANC1, time 1 h, Fig. S3B", "value": "1.6915 fold change and 0.9781 fold change and 1.332 fold change"}, {"measurement": "fold change MCL1 vs Tubulin", "setting": "PANC1 cells [1]; PANC1, time 1 h, Fig. S3B", "value": "0.9288 fold change and 1.014 fold change and 1.02 fold change"}, {"measurement": "fold change BAX vs Tubulin", "setting": "PANC1 cells [1]; PANC1, time 3 h, Fig. S3B", "value": "1.86 fold change and 1.118 fold change and 1.518 fold change"}, {"measurement": "fold change MCL1 vs Tubulin", "setting": "PANC1 cells [1]; PANC1, time 3 h, Fig. S3B", "value": "1.904 fold change and 2.322 fold change and 1.672 fold change"}, {"measurement": "fold change BAX vs Tubulin", "setting": "PANC1 cells [1]; PANC1, time 6 h, Fig. S3B", "value": "1.424 fold change and 1.3785 fold change and 1.29 fold change"}, {"measurement": "fold change MCL1 vs Tubulin", "setting": "PANC1 cells [1]; PANC1, time 6 h, Fig. S3B", "value": "1.358 fold change and 1.631 fold change and 1.901 fold change"}, {"measurement": "fold change BAX vs Tubulin", "setting": "PANC1 cells [1]; PANC1, time 24 h, Fig. S3B", "value": "1.469 fold change and 1.617 fold change and 1.511 fold change"}, {"measurement": "fold change BID full length vs Tubulin", "setting": "PANC1 cells [1]; PANC1, time 24 h, Fig. S3B", "value": "1.745 fold change and 2.178 fold change and 1.991 fold change"}, {"measurement": "fold change MCL1 vs Tubulin", "setting": "PANC1 cells [1]; PANC1, time 24 h, Fig. S3B", "value": "1.279 fold change and 1.508 fold change and 1.299 fold change"}, {"measurement": "fold change p-ERK vs Tubulin", "setting": "PANC1 cells [1]; Time 1 h", "value": "1.164 fold change and 1.13 fold change and 1.21 fold change"}, {"measurement": "fold change p-JNK vs Tubulin", "setting": "PANC1 cells [1]; Time 1 h", "value": "1.373 fold change and 1.201 fold change and 1.17 fold change"}, {"measurement": "fold change p-p38 vs Tubulin", "setting": "PANC1 cells [1]; Time 1 h", "value": "1.546 fold change and 1.183 fold change and 0.9863 fold change"}, {"measurement": "fold change p-p53 vs Tubulin", "setting": "PANC1 cells [1]; Time 1 h", "value": "1.04 fold change and 1.08 fold change and 0.83 fold change"}, {"measurement": "fold change p-ERK vs Tubulin", "setting": "PANC1 cells [1]; Time 3 h", "value": "0.6555 fold change and 1.708 fold change and 1.33 fold change"}, {"measurement": "fold change p-p38 vs Tubulin", "setting": "PANC1 cells [1]; Time 3 h", "value": "0.9361 fold change and 0.959 fold change and 0.6722 fold change"}, {"measurement": "fold change p-p53 vs Tubulin", "setting": "PANC1 cells [1]; Time 3 h", "value": "1.501 fold change and 1.122 fold change and 1.403 fold change"}, {"measurement": "fold change p-ERK vs Tubulin", "setting": "PANC1 cells [1]; Time 6 h", "value": "0.4691 fold change and 2.127 fold change and 1.29 fold change"}, {"measurement": "fold change p-JNK vs Tubulin", "setting": "PANC1 cells [1]; Time 6 h", "value": "0.7555 fold change and 0.4269 fold change and 0.7284 fold change"}, {"measurement": "fold change p-p38 vs Tubulin", "setting": "PANC1 cells [1]; Time 6 h", "value": "0.8737 fold change and 0.5515 fold change and 0.5907 fold change"}, {"measurement": "fold change p-p53 vs Tubulin", "setting": "PANC1 cells [1]; Time 6 h", "value": "2.227 fold change and 1.131 fold change and 2.015 fold change"}, {"measurement": "fold change p-ERK vs Tubulin", "setting": "PANC1 cells [1]; Time 24 h", "value": "0.8571 fold change and 2.648 fold change and 1.55 fold change"}, {"measurement": "fold change p-JNK vs Tubulin", "setting": "PANC1 cells [1]; Time 24 h", "value": "0.8188 fold change and 0.748 fold change and 1.253 fold change"}, {"measurement": "fold change p-p38 vs Tubulin", "setting": "PANC1 cells [1]; Time 24 h", "value": "1.702 fold change and 0.3951 fold change and 0.5063 fold change"}, {"measurement": "fold change p-p53 vs Tubulin", "setting": "PANC1 cells [1]; Time 24 h", "value": "2.03 fold change and 4.05 fold change and 2.63 fold change"}, {"measurement": "phosphorylation of CHK1/2 (DDR pathway, western blot)", "setting": "AGS cells; IC50, 1, 3, 6 or 24 h", "value": "induced the phosphorylation"}, {"measurement": "fold change p-ERK vs Tubulin", "setting": "AGS cells; Time 1 h", "value": "0.9528 fold change and 0.9782 fold change and 0.8139 fold change"}, {"measurement": "fold change p-JNK vs Tubulin", "setting": "AGS cells; Time 1 h", "value": "0.895 fold change and 1.558 fold change and 0.8178 fold change"}, {"measurement": "fold change p-p38 vs Tubulin", "setting": "AGS cells; Time 1 h", "value": "1.508 fold change and 0.8638 fold change and 1.487 fold change"}, {"measurement": "fold change p-p53 vs Tubulin", "setting": "AGS cells; Time 1 h", "value": "0.9865 fold change and 0.9436 fold change and 1.458 fold change"}, {"measurement": "fold change p-ERK vs Tubulin", "setting": "AGS cells; Time 3 h", "value": "1.409 fold change and 0.9423 fold change and 1.158 fold change"}, {"measurement": "fold change p-JNK vs Tubulin", "setting": "AGS cells; Time 3 h", "value": "1.014 fold change and 1.185 fold change and 0.899 fold change"}, {"measurement": "fold change p-p38 vs Tubulin", "setting": "AGS cells; Time 3 h", "value": "1.39 fold change and 0.6346 fold change and 1.266 fold change"}, {"measurement": "fold change p-p53 vs Tubulin", "setting": "AGS cells; Time 3 h", "value": "0.5865 fold change and 1.299 fold change and 1.138 fold change"}, {"measurement": "fold change p-ERK vs Tubulin", "setting": "AGS cells; Time 6 h", "value": "2.441 fold change and 1.161 fold change and 1.546 fold change"}, {"measurement": "fold change p-JNK vs Tubulin", "setting": "AGS cells; Time 6 h", "value": "1.257 fold change and 1.756 fold change and 0.7623 fold change"}, {"measurement": "fold change p-p38 vs Tubulin", "setting": "AGS cells; Time 6 h", "value": "0.9545 fold change and 1.021 fold change and 0.8104 fold change"}, {"measurement": "fold change p-p53 vs Tubulin", "setting": "AGS cells; Time 6 h", "value": "1.308 fold change and 1.189 fold change and 1.275 fold change"}, {"measurement": "fold change p-ERK vs Tubulin", "setting": "AGS cells; Time 24 h", "value": "2.387 fold change and 2.45 fold change and 1.9989 fold change"}, {"measurement": "fold change p-JNK vs Tubulin", "setting": "AGS cells; Time 24 h", "value": "1.302 fold change and 2.33 fold change and 0.8503 fold change"}, {"measurement": "fold change p-p38 vs Tubulin", "setting": "AGS cells; Time 24 h", "value": "0.6414 fold change and 1.823 fold change and 1.149 fold change"}, {"measurement": "fold change p-p53 vs Tubulin", "setting": "AGS cells; Time 24 h", "value": "3.183 fold change and 2.955 fold change and 1.906 fold change"}, {"measurement": "fold change BAX vs Tubulin", "setting": "AGS cells; time 1 h", "value": "1.198 fold change and 1.173 fold change and 0.877 fold change"}, {"measurement": "fold change MCL1 vs Tubulin", "setting": "AGS cells; time 1 h", "value": "1.103 fold change and 0.99 fold change and 0.761 fold change"}, {"measurement": "fold change BAX vs Tubulin", "setting": "AGS cells; time 3 h", "value": "0.789 fold change and 1.149 fold change and 1.345 fold change"}, {"measurement": "fold change MCL1 vs Tubulin", "setting": "AGS cells; time 3 h", "value": "0.575 fold change and 0.967 fold change and 0.513 fold change"}, {"measurement": "fold change BAX vs Tubulin", "setting": "AGS cells; time 6 h", "value": "1.098 fold change and 1.54 fold change and 2.188 fold change"}, {"measurement": "fold change BID full length vs Tubulin", "setting": "AGS cells; time 6 h", "value": "0.649 fold change and 1.175 fold change and 0.953 fold change"}, {"measurement": "fold change MCL1 vs Tubulin", "setting": "AGS cells; time 6 h", "value": "1.101 fold change and 0.938 fold change and 0.603 fold change"}, {"measurement": "fold change BID full length vs Tubulin", "setting": "AGS cells; time 24 h", "value": "1.562 fold change and 1.807 fold change and 1.427 fold change"}, {"measurement": "fold change MCL1 vs Tubulin", "setting": "AGS cells; time 24 h", "value": "0.943 fold change and 0.926 fold change and 0.668 fold change"}, {"measurement": "GSH/GSSG", "setting": "PANC1 cells [2]", "value": "0.8204 and 0.833 and 0.8843"}]}
